According to the Deep4Chem optical property database:
Each block holds one compound with its values, some of them ahead of it.

Experiment: solvent given as SMILES

absorption maximum (in ClCCl): 376 nm
SMILES: Cc1ccc(-n2c(-c3ccc(N(c4ccc(-c5ccc(N(c6ccc(-c7nc8c9ccccc9c9ccccc9c8n7-c7ccc(C)cc7)cc6)c6ccc(-c7nc8c9ccccc9c9ccccc9c8n7-c7ccc(C)cc7)cc6)cc5)cc4)c4ccc(-c5nc6c7ccccc7c7ccccc7c6n5-c5ccc(C)cc5)cc4)cc3)nc3c4ccccc4c4ccccc4c32)cc1

absorption maximum (in ClCCl): 574 nm
SMILES: CCOC(=O)CCCCCn1c2ccc(N)cc2c(=O)c2cc3c(cc21)c(=O)c1cc(N)ccc1n3CCCCCC(=O)OCC

absorption maximum (in CC#N): 566 nm
absorption maximum (in CCCCCC): 573 nm
absorption maximum (in CCOC(C)=O): 570 nm
absorption maximum (in CO): 561 nm
absorption maximum (in ClCCl): 572 nm
SMILES: F[B-]1(F)n2c(ccc2N2CCOCC2)C(c2ccccc2)=C2C=CC(N3CCOCC3)=[N+]21

absorption maximum (in CCO): 333 nm
absorption maximum (in ClC(Cl)Cl): 339 nm
SMILES: COc1ccc2c(-c3nc(-c4ccccc4F)no3)cc(=O)oc2c1

SMILES: N#Cc1ccc2c(c1)C1(c3cc(C#N)ccc3-2)c2ccccc2N(c2ccccc2)c2ccccc21
absorption maximum (in Cc1ccccc1): 330.33 nm

absorption maximum (in C1CCCCC1): 352 nm
absorption maximum (in CC#N): 350 nm
absorption maximum (in CO): 348 nm
absorption maximum (in ClCCl): 353 nm
absorption maximum (in O): 360 nm
SMILES: c1ccc(-c2nc(-c3ccc(N(c4ccccc4)c4ccccc4)cc3)n3ccccc23)cc1

absorption maximum (in C1COCCO1): 434 nm
absorption maximum (in CC#N): 431 nm
absorption maximum (in ClCCl): 434 nm
SMILES: CCCn1c(=O)c(/C=C/c2nc3ccc(C)cc3n(CCC)c2=O)nc2ccc(C)cc21

absorption maximum (in CC#N): 347 nm
absorption maximum (in CCO): 350 nm
SMILES: Cc1cc(=O)oc2ccc3ccc(O)cc3c12

SMILES: c1ccc2c(-n3c4ccccc4c4ccccc43)cccc2c1
absorption maximum (in C1CCCCC1): 321 nm
absorption maximum (in C1CCOC1): 323 nm
absorption maximum (in CC#N): 322 nm
absorption maximum (in CCO): 325 nm
absorption maximum (in CCOC(C)=O): 323 nm
absorption maximum (in CCOCC): 322 nm
absorption maximum (in CO): 323 nm
absorption maximum (in Cc1ccccc1): 321 nm
absorption maximum (in ClC(Cl)Cl): 324 nm

absorption maximum (in C1CCOC1): 439 nm
SMILES: CC(C)(C)c1cc2c3c(c1)c1cc(C(C)(C)C)cc4c1n3B1c3c-2cccc3-c2cc(C(C)(C)C)cc3c5cc(C(C)(C)C)cc-4c5n1c23

absorption maximum (in C1CCOC1): 455 nm
absorption maximum (in CCCCCC): 447 nm
absorption maximum (in ClCCl): 465 nm
absorption maximum (in c1ccccc1): 457 nm
SMILES: O=C1OC(=O)c2ccc(N(c3ccccc3)c3ccc4ccc5cccc6ccc3c4c56)c3cccc1c23

absorption maximum (in CO): 354 nm
SMILES: COc1ccc(-c2nc(-c3ccc(C#N)cc3)[nH]c2-c2ccc(OC)cc2)cc1

absorption maximum (in ClC(Cl)Cl): 342 nm
SMILES: CC(C)(C)c1ccc2oc3nc4oc5ccc(N(c6ccccc6)c6ccccc6)cc5c4cc3c2c1

absorption maximum (in ClC(Cl)Cl): 419 nm
SMILES: CCn1c2ccccc2c2cc3c(cc21)c1ccccc1n3CC

absorption maximum (in C1CCOC1): 347 nm
SMILES: Nc1ccccc1/C=C/C(F)(F)F

absorption maximum (in ClCCl): 435 nm
SMILES: C[Si]1(C)c2cc(-c3ccc(N(c4ccccc4)c4ccccc4)cc3)ccc2C=Cc2ccc(-c3ccc(N(c4ccccc4)c4ccccc4)cc3)cc21

absorption maximum (in ClC(Cl)Cl): 410 nm
SMILES: O=C1CC(c2ccc(Cl)cc2)c2c(c3ccccc3c3nc4ccccc4nc23)O1 (centres undefined)

absorption maximum (in ClCCl): 424 nm
SMILES: CCCCCCc1cc2c(=O)c3cc(CCCCCC)cc4c(=O)c5cc(CCCCCC)cc6c(=O)c(c1)c2n(c34)c65

absorption maximum (in CC#N): 328 nm
absorption maximum (in CCCCCC): 332 nm
absorption maximum (in CCO): 328 nm
absorption maximum (in CN(C)C=O): 334 nm
absorption maximum (in ClC(Cl)Cl): 331 nm
SMILES: COc1ccc(-n2nc(C(=O)N3CCCC3)c(N3CCCC3)n2)cc1

absorption maximum (in ClCCl): 304 nm
SMILES: Cc1cc2ccccc2c2c1c1ccccc1n2-c1ccc(N(c2ccccc2)c2ccccc2)cc1

absorption maximum (in ClC(Cl)Cl): 432 nm
SMILES: CCCN1c2ccccc2Sc2cc(/C=C\c3cc(=O)oc4cc(C)c(Cl)cc34)ccc21

absorption maximum (in ClCCl): 462 nm
SMILES: CC(C)(C)c1ccc2c(c1)c1cc(C(C)(C)C)ccc1n2-c1ccc(N(c2ccc(-c3ccc(-c4ccc(N(c5ccc(-n6c7ccc(C(C)(C)C)cc7c7cc(C(C)(C)C)ccc76)cc5)c5ccc(-n6c7ccc(C(C)(C)C)cc7c7cc(C(C)(C)C)ccc76)cc5)cc4)c4nsnc34)cc2)c2ccc(-n3c4ccc(C(C)(C)C)cc4c4cc(C(C)(C)C)ccc43)cc2)cc1
